11 compounds from PubChem BioAssay AID212 (DTP/NCI, 2004) can be followed below.

The test deals with BDF1 mice, colon carcinoma 38 sc, T/C %. Briefly: NCI In Vivo Anticancer Drug Screen. Data for tumor model Colon Carcinoma 38 (subcutaneous) in B6D2F1 (BDF1) mice. To be noted: endpoint: median tumor weight (est.), higher = larger tumour. In short, it runs like this:
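Ratio of survival or tumor size, compound-treated animals relative to vehicle controls, in tumor-bearing mice.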

The mark [1] stands for this setting: dose: 25.0 mg/kg/injection, schedule: Q07DX002 (ip), vehicle: saline.
The mark [2] stands for this setting: dose: 50.0 mg/kg/injection, schedule: Q07DX002 (ip), vehicle: saline with Tween-80.
Setting [3] is: dose: 50.0 mg/kg/injection, schedule: Q07DX002 (ip), vehicle: saline.
Where [4] appears, read: dose: 100.0 mg/kg/injection, schedule: Q07DX002 (ip), vehicle: saline.
The mark [5] stands for this setting: dose: 200.0 mg/kg/injection, schedule: Q07DX002 (ip), vehicle: saline.
Where [6] appears, read: dose: 400.0 mg/kg/injection, schedule: Q07DX002 (ip), vehicle: saline with Tween-80.
Setting [7] is: dose: 12.5 mg/kg/injection, schedule: Q07DX002 (ip), vehicle: Klucel (hydroxypropylcellulose) (HPC).
The mark [8] stands for this setting: dose: 25.0 mg/kg/injection, schedule: Q07DX002 (ip), vehicle: Klucel (hydroxypropylcellulose) (HPC).

Where “and” joins values, the source holds several entries; their conditions need not be identical. Identical values can stand only once. Records with an inconclusive call do not appear.

As to `O=Cc1ccc(O)c(O)c1`, the T/C is, setting by setting: under setting [1], 65 % of control; under setting [2], 117 % of control; under setting [3], 85 % of control; (dose: 100.0 mg/kg/injection, schedule: Q07DX002 (ip), vehicle: saline with Tween-80) 91 % of control; under setting [4], 63 % of control; (dose: 200.0 mg/kg/injection, schedule: Q07DX002 (ip), vehicle: saline with Tween-80) 108 % of control. Moreover, the T/C was 97 % of control under setting [5]; 113 % of control under setting [6]; 88 % of control (dose: 800.0 mg/kg/injection, schedule: Q07DX002 (ip), vehicle: saline).
In the case of `C[n+]1c(-c2cccc(OCCOCCOc3cccc(-c4c5cc(N)ccc5c5ccc(N)cc5[n+]4C)c3)c2)c2cc(N)ccc2c2ccc(N)cc21`, the T/C is 53 % of control (dose: 1.0 mg/kg/injection, schedule: Q07DX002 (ip), vehicle: water); 44 % of control and 45 % of control (dose: 4.0 mg/kg/injection, schedule: Q07DX002 (ip), vehicle: water); 81 % of control (dose: 32.0 mg/kg/injection, schedule: Q07DX002 (ip), vehicle: water).
As to `CCCCn1cnc2c(=S)nc[nH]c21`, the T/C runs as follows: under setting [2], 87 % of control and 96 % of control; under setting [6], 17 % of control and 21 % of control.
With `CC(=O)CC(c1ccccc1)c1c(O)c2ccccc2oc1=O` (stereo not drawn), the T/C runs as follows: (dose: 0.01 mg/kg/injection, schedule: Q07DX002 (ip), vehicle: Klucel (hydroxypropylcellulose) (HPC)) 96 % of control; (dose: 0.02 mg/kg/injection, schedule: Q07DX002 (ip), vehicle: Klucel (hydroxypropylcellulose) (HPC)) 119 % of control; (dose: 0.05 mg/kg/injection, schedule: Q07DX002 (ip), vehicle: Klucel (hydroxypropylcellulose) (HPC)) 100 % of control; (dose: 0.1 mg/kg/injection, schedule: Q07DX002 (ip), vehicle: Klucel (hydroxypropylcellulose) (HPC)) 95 % of control; (dose: 0.2 mg/kg/injection, schedule: Q07DX002 (ip), vehicle: Klucel (hydroxypropylcellulose) (HPC)) 86 % of control; (dose: 0.22 mg/kg/injection, schedule: Q07DX002 (ip), vehicle: saline) 115 % of control. In addition, the T/C was 91 % of control (dose: 0.45 mg/kg/injection, schedule: Q07DX002 (ip), vehicle: saline with Tween-80); 96 % of control (dose: 0.45 mg/kg/injection, schedule: Q07DX002 (ip), vehicle: saline); 110 % of control (dose: 0.9 mg/kg/injection, schedule: Q07DX002 (ip), vehicle: saline with Tween-80); 88 % of control (dose: 0.9 mg/kg/injection, schedule: Q07DX002 (ip), vehicle: saline); 72 % of control (dose: 1.8 mg/kg/injection, schedule: Q07DX002 (ip), vehicle: saline); 67 % of control (dose: 3.6 mg/kg/injection, schedule: Q07DX002 (ip), vehicle: saline).
Consider `O=NN(CCCl)C(=O)NC1CCCCC1`, for which the T/C is, setting by setting: (dose: 6.25 mg/kg/injection, schedule: Q07DX002 (ip), vehicle: Klucel (hydroxypropylcellulose) (HPC)) 91 % of control; (dose: 10.0 mg/kg/injection, schedule: Q07DX003 (ip), vehicle: Klucel (hydroxypropylcellulose) (HPC)) 71 % of control; (dose: 10.0 mg/kg/injection, schedule: Q07DX003 (ip), vehicle: carboxymethylcellulose (CMC)) 53 % of control; under setting [7], 64 % of control; (dose: 20.0 mg/kg/injection, schedule: Q07DX003 (ip), vehicle: Klucel (hydroxypropylcellulose) (HPC)) 72 % of control; (dose: 20.0 mg/kg/injection, schedule: Q07DX003 (ip), vehicle: carboxymethylcellulose (CMC)) 47 % of control. For the same compound, the T/C was 36 % of control under setting [8]; 44 % of control (dose: 40.0 mg/kg/injection, schedule: Q07DX003 (ip), vehicle: Klucel (hydroxypropylcellulose) (HPC)); 24 % of control (dose: 40.0 mg/kg/injection, schedule: Q07DX003 (ip), vehicle: carboxymethylcellulose (CMC)); 33 % of control (dose: 80.0 mg/kg/injection, schedule: Q07DX003 (ip), vehicle: Klucel (hydroxypropylcellulose) (HPC)).
As to `CC(=O)OCC1C(=O)OCC1C(=O)N1Cc2cc3ccccc3nc2C1` (stereo not drawn), the T/C is, setting by setting: (dose: 4.0 mg/kg/injection, schedule: Q07DX002 (ip), vehicle: saline with Tween-80) 88 % of control; (dose: 8.0 mg/kg/injection, schedule: Q07DX003 (ip), vehicle: saline with Tween-80) 230 % of control; (dose: 16.0 mg/kg/injection, schedule: Q07DX003 (ip), vehicle: saline with Tween-80) 191 % of control; (dose: 32.0 mg/kg/injection, schedule: Q07DX003 (ip), vehicle: saline with Tween-80) 30 % of control; (dose: 64.0 mg/kg/injection, schedule: Q07DX002 (ip), vehicle: saline with Tween-80) 85 % of control and 102 % of control; (dose: 128.0 mg/kg/injection, schedule: Q07DX002 (ip), vehicle: saline with Tween-80) 115 % of control. Further, the T/C (dose: 128.0 mg/kg/injection, schedule: Q07DX003 (ip), vehicle: saline with Tween-80) was 107 % of control.
Consider `CCN(CC)c1ccc2cc(-c3nc4ccccc4n3C)c(=O)oc2c1`, for which the T/C is 112 % of control under setting [7]; 120 % of control under setting [8]; 85 % of control (dose: 50.0 mg/kg/injection, schedule: Q07DX002 (ip), vehicle: Klucel (hydroxypropylcellulose) (HPC)); 62 % of control (dose: 100.0 mg/kg/injection, schedule: Q07DX002 (ip), vehicle: Klucel (hydroxypropylcellulose) (HPC)).
Take `CN(C)N=Nc1cccc(C(N)=O)c1`: the T/C (dose: 10.0 mg/kg/injection, schedule: Q07DX002 (ip), vehicle: Klucel (hydroxypropylcellulose) (HPC)) was 86 % of control; the T/C (dose: 20.0 mg/kg/injection, schedule: Q07DX002 (ip), vehicle: Klucel (hydroxypropylcellulose) (HPC)) was 86 % of control; the T/C (dose: 20.0 mg/kg/injection, schedule: Q07DX002 (ip), vehicle: saline) was 97 % of control; the T/C (dose: 40.0 mg/kg/injection, schedule: Q07DX002 (ip), vehicle: Klucel (hydroxypropylcellulose) (HPC)) is 44 % of control; the T/C (dose: 40.0 mg/kg/injection, schedule: Q07DX002 (ip), vehicle: saline) is 114 % of control and 104 % of control; the T/C (dose: 80.0 mg/kg/injection, schedule: Q07DX002 (ip), vehicle: Klucel (hydroxypropylcellulose) (HPC)) was 18 % of control. Besides, the T/C (dose: 160.0 mg/kg/injection, schedule: Q07DX002 (ip), vehicle: saline) is 27 % of control and 29 % of control.
Consider `CCN(CC)CCC(=O)c1ccccc1`, for which the T/C is 85 % of control (dose: 6.25 mg/kg/injection, schedule: Q07DX002 (ip), vehicle: saline); 118 % of control and 108 % of control (dose: 12.5 mg/kg/injection, schedule: Q07DX002 (ip), vehicle: saline); 122 % of control (dose: 12.5 mg/kg/injection, schedule: Q07DX002 (ip), vehicle: suspension in saline); 80 % of control (dose: 25.0 mg/kg/injection, schedule: Q07DX002 (ip), vehicle: suspension in saline); 85 % of control (dose: 50.0 mg/kg/injection, schedule: Q07DX002 (ip), vehicle: suspension in saline); 108 % of control under setting [4].
As to `C=CCc1cn(C2CC(O)C(CO)O2)c(=O)[nH]c1=O` (stereo not drawn), the T/C runs as follows: under setting [1], 85 % of control; under setting [3], 78 % of control; under setting [4], 62 % of control and 65 % of control.
With `OCCCN1CCCCC1CO` (stereo not drawn), the T/C under setting [1] is 91 % of control; the T/C under setting [3] was 110 % of control; the T/C under setting [4] is 108 % of control; the T/C under setting [5] is 99 % of control; the T/C (dose: 400.0 mg/kg/injection, schedule: Q07DX002 (ip), vehicle: saline) is 98 % of control.
